According to patent publication US20200038413A1, “METHODS OF TREATING PARKINSON'S DISEASE USING AMINOSTEROL COMPOSITIONS” (Enterin, Inc., priority 2018, published 2020):

System: WT and A53T mice
Assay: In vivo fecal pellet output test
Set-up: species or system mouse
Conditions: for FPO in the first 15 min: Day 5 vs Day 0
Experimental: In vivo fecal pellet output: Mice were subjected to the FPO test 1 day prior to the start of dosing with squalamine or vehicle (sterile water) (day 0). Mice were fasted for one hour and then given access to food one hour before FPO testing. On days 1-5 mice were fasted for one hour prior to oral gavage with vehicle or 20, 40, 80, or 120mg/kg squalamine. Oral gavage occurred between 10:00 to 11:00 am daily. On day 5, the FPO test was performed 1 hour after the final dose was administered. Total number of stool pellets produced in the first 15 min and over a 60 min period was measured in each group. Stool water content was measured by comparing wet and dry weights of the stool.

CC(C)[C@@H](CC[C@@H](C)[C@H]1CC[C@H]2[C@@H]3[C@H](O)C[C@H]4C[C@@H](NCCCNCCCCN)CC[C@]4(C)[C@H]3CC[C@]12C)OS(=O)(=O)O (single isomer, unassigned) [squalamine (ENT-01), squalamine]
significantly increased: FPO in the first 15 min (A53T mice, 20, 40 and 80 mg/kg oral gavage for 5 days) | fecal water content (A53T mice, 80 and 120 mg/kg oral) | fecal water content (WT mice, 80 mg/kg oral) | FPO in the first 15 min (WT mice, 40 and 120 mg/kg oral gavage for 5 days)
